{"source": "patent US11643439B2", "about": "“Multi-target compound with anticoagulation and antiplatelet activity, preparation method therefor, and use thereof” (SHAANXI MICOT TECHNOLOGY LIMITED COMPANY, priority 2015, dated 2023)", "key": {"[1]": {"tested_on": "FeCl3-induced inferior vena cava thrombosis", "test": "FeCl3-induced inferior vena cava thrombosis in rats", "assay_type": "in vivo, rat", "protocol": "(§1) 160 Rats were randomly divided into groups, 5 to 10 rats per group.\n(§2) According to the body weight in kilograms of the rats, the first dose of a drug was dissolved in 2 mL of physiological saline for single bolus injection. The maintaining dose of drug was dissolved in 9 ml of physiological saline, and placed in a double-channel micro-injection pump, which was dripped off within 90 minutes at a dripping speed of 0.1 ml/min. The sham operation group was administered with the same volume of physiological saline.\n(§3) The rats were fasted with free access to water overnight before the experiment.\n15 minutes later, the filter paper was removed. And then, after observation for 45 minutes, the blood vessels and local tissues were rinsed with warm physiological saline, and the covered blood vessels were cut off. The thrombus which attached to the blood vessel walls was peeled off to be weighed on a tin foil for its wet weight, and then weighed overnight at room temperature for its dry weight. The administration was continued until the completion of the experiment.\nAfter the experiment was completed, the segment of the blood vessels in which there had been thrombus formation was cut off, weighed for the wet weight, and then weighed overnight at room temperature for the dry weight of the thrombus. Thrombosis inhibitory rate was calculated."}, "[2]": {"tested_on": "blood coagulation function", "test": "PT in rats, intravenous maintenance administration", "assay_type": "in vivo, rat", "protocol": "as §1, §2, §3\n(§4) The blood samples were taken before administration, administration for 60 minutes, and before termination of administration, respectively, to determine their activated partial thromboplastin time (APTT) and prothrombin time (PT). The blood samples were centrifuged at 3510 rpm for 8 minutes to obtain platelet poor plasma (PPP). Reagent reconstruction and preservation were performed according to the operation requirements of the kit. Immediately after each blood sample was placed into a test cup and then PT and APTT reagents were added, the test was started. After the test was completed, results were recorded.\n(§5) 5.1 Determination of blood coagulation function: The blood samples were taken 0 min before administration, administration for 60 minutes, and termination of administration, respectively, and then determined using a platelet-aggregation coagulation factor analyzer for the blood coagulation functions (PT. APTT) and ACT."}, "[3]": {"tested_on": "blood coagulation function", "test": "APTT in rats, intravenous maintenance administration", "assay_type": "in vivo, rat", "protocol": "as §1, §2, §3, §4, §5"}, "[4]": {"tested_on": "FeCl3-induced femoral artery thrombosis", "test": "FeCl3-induced femoral artery thrombosis in rabbits, single intravenous administration", "assay_type": "in vivo, rabbit", "conditions": "single iv 200 U (U/kg)", "protocol": "1. Grouping and administration: 48 Rabbits were randomly divided into 6 groups, 8 rabbits per group. 1) Sham operation group (NS): Intravenous injection of the same volume of physiological saline; 2) positive control bivalirudin group (6 mg/kg); 3) positive control enoxaparin group (200 U/kg); 4) Low dose group of polypeptide 2 (3.0 mg/kg); 5) Medium dose group of polypeptide 2 (6.0 mg/kg); 6) High dose group of polypeptide 2 (12.0 mg/kg). Polypeptide 2 was administered by single intravenous administration. According to the body weight in kilograms of the rabbits, the sample was dissolved in 2 mL of physiological saline for single bolus injection. The sham operation group was administered with the same volume of physiological saline.\n2.1 Surgery preparation of rabbits: Rabbit were sent to the laboratory for accommodation for one day, and then screened at first. Blood samples were taken from arteries within ears, which were subjected to blood routine analysis and APTT examinations, and the rabbits with a normal blood hemogram and APTT between 16 and 28 seconds were selected for experiments. The rabbits to be tested were fasted with free access to water in the night before the experiment. The rabbits were anesthetized with intravenous injection of 3% sodium pentobarbital solution at 1 ml/kg, fixed in the supine position, and then, the common carotid artery at one side, external jugular vein, femoral artery at one side, femoral vein, and forelimb vein at one side were isolated. The forelimb vein was subjected to intubation for administration; the left femoral vein was subjected to intubation for blood collection to determine the platelet aggregation rate: the femoral artery was used for the establishment of an arterial thrombosis model; the common carotid artery and external jugular vein were used for the establishment of an arterial and venous bypass thrombosis model.\n2.3 Arterial thrombosis (AT) model: A small piece of filter paper (1 cm×1.5 cm) absorbed with 50% FeCl3 solution was applied onto the right femoral artery while administration, below which a small piece of a plastic film (2.5 cm×2.0 cm) was placed to protect surrounding tissues. After 10 minutes, the filter paper was removed, and then, the blood vessels and local tissues were rinsed with warm physiological saline, and the covered blood vessels were cut off. The thrombus which attached to the blood vessel walls was peeled off to be weighed on a tin foil for its wet weight, and then kept overnight at room temperature and weighed for its dry weight.\nThe femoral arteries in the […] and both sides in the rabbits were isolated and stabilized for 10 min before the administration was started. An AT model was established by covering the femoral artery with 50% FeCl3 filter paper while administration, and the filter paper was removed after covering for 15 minutes. An AVST model was established and it was taken out after […]. Observation was continued for 120 min after administration until the experiment was completed.\n3.4 Thrombus weight: After the experiment was completed, the segment of the blood vessels in which there had been thrombus formation was cut off, weighed for the wet weight, and then kept overnight at room temperature and weighed for the dry weight. The thrombosis inhibitory rate was calculated with a calculation equation as follows: […]"}}, "data": [{"substance": "Enoxaparin", "values": [{"measurement": "Inferior vena cava thrombosis Inhibition percentage", "setting": "[1]; iv 30 + 45 u (U/kg+U/kg/h)", "value": 34.93, "unit": "%"}, {"measurement": "Inferior vena cava thrombosis Thrombus weight", "setting": "[1]; iv 30 + 45 u (U/kg+U/kg/h)", "value": "14.67 ± 8.44", "unit": "mg"}, {"measurement": "Inferior vena cava thrombosis Inhibition percentage", "setting": "[1]; iv 30 + 120 u (U/kg+U/kg/h)", "value": 49.07, "unit": "%"}, {"measurement": "Inferior vena cava thrombosis Thrombus weight", "setting": "[1]; iv 30 + 120 u (U/kg+U/kg/h)", "value": "11.48 ± 2.81", "unit": "mg"}, {"measurement": "Inferior vena cava thrombosis Inhibition percentage", "setting": "[1]; iv 60 + 60 u (U/kg+U/kg/h)", "value": 50.42, "unit": "%"}, {"measurement": "Inferior vena cava thrombosis Thrombus weight", "setting": "[1]; iv 60 + 60 u (U/kg+U/kg/h)", "value": "11.18 ± 4.47", "unit": "mg"}, {"measurement": "Inferior vena cava thrombosis Inhibition percentage", "setting": "[1]; iv 60 + 240 u (U/kg+U/kg/h)", "value": 86.25, "unit": "%"}, {"measurement": "Inferior vena cava thrombosis Thrombus weight", "setting": "[1]; iv 60 + 240 u (U/kg+U/kg/h)", "value": "6.59 ± 2.54", "unit": "mg"}, {"measurement": "Inferior vena cava thrombosis Inhibition percentage", "setting": "[1]; iv 90 + 120 u (U/kg+U/kg/h)", "value": 64.06, "unit": "%"}, {"measurement": "Inferior vena cava thrombosis Thrombus weight", "setting": "[1]; iv 90 + 120 u (U/kg+U/kg/h)", "value": "8.10 ± 3.67", "unit": "mg"}, {"measurement": "PT Before administration", "setting": "[2]; iv 30 + 45 u (U/kg+U/kg/h)", "value": "10.23 ± 1.19"}, {"measurement": "PT Fold of change", "setting": "[2]; iv 30 + 45 u (U/kg+U/kg/h)", "value": "1.24 ± 0.14"}, {"measurement": "PT administration for 60 minutes", "setting": "[2]; iv 30 + 45 u (U/kg+U/kg/h)", "value": "12.70 ± 2.49"}, {"measurement": "PT Before administration", "setting": "[2]; iv 30 + 120 u (U/kg+U/kg/h)", "value": "9.93 ± 1.77"}, {"measurement": "PT Fold of change", "setting": "[2]; iv 30 + 120 u (U/kg+U/kg/h)", "value": "1.67 ± 0.42"}, {"measurement": "PT administration for 60 minutes", "setting": "[2]; iv 30 + 120 u (U/kg+U/kg/h)", "value": "16.17 ± 1.86"}, {"measurement": "PT Before administration", "setting": "[2]; iv 60 + 60 u (U/kg+U/kg/h)", "value": "9.53 ± 1.96"}, {"measurement": "PT Fold of change", "setting": "[2]; iv 60 + 60 u (U/kg+U/kg/h)", "value": "4.10 ± 5.56"}, {"measurement": "PT administration for 60 minutes", "setting": "[2]; iv 60 + 60 u (U/kg+U/kg/h)", "value": "31.39 ± 35.50"}, {"measurement": "PT Before administration", "setting": "[2]; iv 60 + 240 u (U/kg+U/kg/h)", "value": "10.28 ± 0.98"}, {"measurement": "PT Fold of change", "setting": "[2]; iv 60 + 240 u (U/kg+U/kg/h)", "value": "1.78 ± 0.30"}, {"measurement": "PT administration for 60 minutes", "setting": "[2]; iv 60 + 240 u (U/kg+U/kg/h)", "value": "18.21 ± 2.70"}, {"measurement": "PT Before administration", "setting": "[2]; iv 90 + 120 u (U/kg+U/kg/h)", "value": "9.63 ± 1.58"}, {"measurement": "PT Fold of change", "setting": "[2]; iv 90 + 120 u (U/kg+U/kg/h)", "value": "1.57 ± 0.21"}, {"measurement": "PT administration for 60 minutes", "setting": "[2]; iv 90 + 120 u (U/kg+U/kg/h)", "value": "14.88 ± 1.67"}, {"measurement": "APTT Before administration", "setting": "[3]; iv 30 + 45 u (U/kg+U/kg/h)", "value": "28.99 ± 7.00"}, {"measurement": "APTT Fold of change", "setting": "[3]; iv 30 + 45 u (U/kg+U/kg/h)", "value": "1.78 ± 0.61"}, {"measurement": "APTT administration for 60 minutes", "setting": "[3]; iv 30 + 45 u (U/kg+U/kg/h)", "value": "52.28 ± 22.51"}, {"measurement": "APTT Before administration", "setting": "[3]; iv 30 + 120 u (U/kg+U/kg/h)", "value": "23.66 ± 5.88"}, {"measurement": "APTT Fold of change", "setting": "[3]; iv 30 + 120 u (U/kg+U/kg/h)", "value": "4.65 ± 1.72"}, {"measurement": "APTT administration for 60 minutes", "setting": "[3]; iv 30 + 120 u (U/kg+U/kg/h)", "value": "117.55 ± 78.85"}, {"measurement": "APTT Before administration", "setting": "[3]; iv 60 + 60 u (U/kg+U/kg/h)", "value": "23.45 ± 4.70"}, {"measurement": "APTT Fold of change", "setting": "[3]; iv 60 + 60 u (U/kg+U/kg/h)", "value": "2.66 ± 0.36"}, {"measurement": "APTT administration for 60 minutes", "setting": "[3]; iv 60 + 60 u (U/kg+U/kg/h)", "value": "61.81 ± 13.19"}, {"measurement": "APTT Before administration", "setting": "[3]; iv 60 + 240 u (U/kg+U/kg/h)", "value": "26.79 ± 4.74"}, {"measurement": "APTT Fold of change", "setting": "[3]; iv 60 + 240 u (U/kg+U/kg/h)", "value": "10.69 ± 7.14"}, {"measurement": "APTT administration for 60 minutes", "setting": "[3]; iv 60 + 240 u (U/kg+U/kg/h)", "value": "270.43 ± 166.43"}, {"measurement": "APTT Before administration", "setting": "[3]; iv 90 + 120 u (U/kg+U/kg/h)", "value": "19.04 ± 5.26"}, {"measurement": "APTT Fold of change", "setting": "[3]; iv 90 + 120 u (U/kg+U/kg/h)", "value": "16.34 ± 12.97"}, {"measurement": "APTT administration for 60 minutes", "setting": "[3]; iv 90 + 120 u (U/kg+U/kg/h)", "value": "270.85 ± 148.90"}, {"measurement": "Thrombus dry weight", "setting": "[4]", "value": "1.5 ± 0.4", "unit": "mg"}, {"measurement": "Thrombus inhibitory rate", "setting": "[4]", "value": 48.26, "unit": "%"}]}]}
